According to patent publication EP0503520A1, “Cyclic ketal derivatives” (GLAXO GROUP LIMITED, priority 1991, dated 1992):

These compounds were tested against T1, squalene synthase (Rattus norvegicus, UniProt Q02769) (assay: Inhibition of squalene synthase in rat liver homogenate with [2-14C]farnesylpyrophosphate as substrate). Conditions: 50% inhibition of [14C]squalene production in a 30 minute assay, read-out: IC₅₀.
T1 construct: incubating rat liver homogenate with various concentrations of the test compound; from tissue; host or cells: rat liver homogenate
T1 sequence (Q02769 1-416): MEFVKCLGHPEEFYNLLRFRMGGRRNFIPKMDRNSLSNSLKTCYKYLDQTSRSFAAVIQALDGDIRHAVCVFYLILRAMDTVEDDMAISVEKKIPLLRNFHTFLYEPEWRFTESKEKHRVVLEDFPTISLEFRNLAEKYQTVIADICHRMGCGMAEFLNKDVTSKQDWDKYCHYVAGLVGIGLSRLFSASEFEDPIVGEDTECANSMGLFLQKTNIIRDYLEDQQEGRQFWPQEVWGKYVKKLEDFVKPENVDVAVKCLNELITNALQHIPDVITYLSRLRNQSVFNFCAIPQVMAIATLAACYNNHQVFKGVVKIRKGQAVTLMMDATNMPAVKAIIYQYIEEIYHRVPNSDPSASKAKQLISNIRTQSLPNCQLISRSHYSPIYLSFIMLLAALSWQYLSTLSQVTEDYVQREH
Assay type: biochemical
Procedure: Acta, Volume 877, 50-60 (1986) and modified to include measurement of cholesterol by high performance liquid chromatography (h.p.l.c.).
[¹⁴C] Squalene was separated from unreacted substrate on thin layer chromatography plates and determined by liquid scintillation counting. Inhibition of squalene synthase was quantified by incubating rat liver homogenate with various concentrations of the test compound in the presence of [2-¹⁴C] farnesylpyrophosphate. The concentration of compound giving 50% inhibition of [¹⁴C] squalene production in a 30 minute assay was taken as the IC₅₀ value.

Row | SMILES | IC50
1 | C=C(CC[C@]12O[C@H](C(=O)O)[C@@](O)(C(=O)O)[C@](C(=O)O)(O1)[C@H](OC(=O)/C=C/[C@@H](C)C[C@@H](C)CC)[C@H]2O)[C@@H](OC(C)=O)[C@H](C)Cc1ccc(F)cc1 (relative stereo) [Example 1(a), [1S-[1α(4R*,5S*),3α,4β,5α,6α(2E,4R*,6R*),7β]] 1-[4-Acetoxy-6-(4-fluorophenyl)-5-methyl-3-methylenehexyll-4,6,7-trihydroxy-2,8-dioxabicyclo[3.2.1]octane-3,4,5-tricarboxylic acid, 6-(4,6-dimethyl-2-octenoate)] | < 100 nM
2 | C=C(CC[C@]12O[C@H](C(=O)O)[C@@](O)(C(=O)O)[C@](C(=O)O)(O1)[C@H](OC(=O)/C=C/[C@@H](C)C[C@@H](C)CC)[C@H]2O)[C@@H](OC(C)=O)[C@H](C)Cc1cccc(F)c1 (relative stereo) [Example 1(b), [1S-[1α(4R*,5S*),3α,4β,5α,6α(2E,4R*,6R*),7β]] 1-[4-Acetoxy-6-(3-fluorophenyl)-5-methyl-3-methylenehexyl]-4,6,7-trihydroxy-2,8-dioxabicyclo[3.2.1]octane-3,4,5-tricarboxylic acid, 6-(4,6-dimethyl-2-octenoate)] | < 100 nM
3 | C=C(CC[C@]12O[C@H](C(=O)O)[C@@](O)(C(=O)O)[C@](C(=O)O)(O1)[C@H](OC(=O)/C=C/[C@@H](C)C[C@@H](C)CC)[C@H]2O)[C@@H](OC(C)=O)[C@H](C)Cc1ccccc1F (relative stereo) [Example 1(c), [1S-[1α(4R*,5S*),3α,4β,5α,6α(2E,4R*,6R*),7β]] 1-[4-Acetoxy-6-(2-fluorophenyl)-5-methyl-3-methylenehexyl]-4,6,7-trihydroxy-2,8-dioxabicyclo[3.2.1]octane-3,4,5-tricarboxylic acid, 6-(4,6-dimethyl-2-octenoate)] | < 100 nM
